The results in this text go back to US9096591B2, “Tetracyclic compounds” (Medivation Technologies, Inc., priority 2007, dated 2015).

“And” between values parts separate entries of the source, which are not always exact repeats. Equal entries are not always repeated.

In data set [1] the target is T1, human recombinant dopamine D2L receptor (Homo sapiens, UniProt P14416).
T1 construct: expressed in transfected cells; host or cells: CHO cells
In words: Dopamine D2L antagonist activity ([35S]GTPγS binding, SPA). It counts as biochemical. The settings on record: for Antagonist Activity As Measured by % Inhibition D2L / inhibition at 0.03 µM / inhibition at 0.1 µM / inhibition at 0.3 µM: two values = assay run twice; for inhibition at 0.03 µM / inhibition at 0.1 µM / inhibition at 0.3 µM / inhibition at 1 µM / inhibition at 3 µM: read-out: Antagonist Activity As Measured by % Inhibition D2L. As for the experimental part: To determine for agonist or antagonist activity of compounds of the invention in functional assays, human recombinant dopamine D2L receptor stably expressed in Chinese hamster ovary (CHO) cells (Senogles S E et al. J Biol Chem. 265(8): 4507, 1990) was used. Compounds of invention were pre-incubated with the membranes (0.1 mg/ml) and […] in modified HEPES buffer (20 mM HEPES, pH 7.4, 100 mM NaCl, 10 mM MgCl2, 1 mM DTT, 1 mM EDTA) for 20 minutes and Scintillation Proximity Assay (SPA) beads were added for another 60 minutes at 30° C. The reaction was initiated by 0.3 nM [^35S]GTPγS for an additional 15 minute incubation period. […] Compounds were screened at 3 μM or lower, using 0.4% DMSO as vehicle. Assay results are presented as the percent response of specific binding in Table 8.
A general note: GTPγS resists hydrolysis and so accumulates on activated G proteins.

For data set [2], the system named is AMPA receptors. Nature of the data set: AMPA-receptor activity: kainic acid-induced currents in Purkinje cells (patch-clamp). The format is cell-based, rat. To be noted: mean±SEM, control=100%. The method, then:
The analysis of effects of the testing compounds on AMPA receptors was carried out using an electrophysiological patch-clamp method in whole cell configuration (Hamill et al., 1980) of the Purkinje cell fresh isolated from the cerebellum of juvenile rats (12-15 days). The isolation was carried out using a modified method (Kaneda et al., 1988) in which cerebral 400-600 μm sections were incubated for 60 min in the temperature controlled chamber in 10 mL of buffer solution (150 mM NaCl, 5 mM KCl, 2 mM CaCl2, 2 mM MgSO4.7H2O, 10 mM HEPES, 15 mM glucose, pH 7.42). The incubation solution was exchanged with the incubation buffer with pronase (2 mg/mL) and collagenase (1 mg/mL) for 70 min. After a 20 min wash with the original buffer, all sections were placed into the Petri dish and were separated using a Pasteur pipette. All solutions were constantly aerated with 100% O2 at 34° C. The composition of extracellular saline was: 150 mM NaCl, 5 mM KCl, 2.6 mM CaCl2, 2 mM MgSO4.7H2O, 10 mM HEPES, 15 mM glucose, pH 7.36. The transmembrane current was induced as a result of the activation of AMPA receptors by a superfusion with the agonist solution (kainic acid). The currents were measured using borosilicate microelectrodes (resistance […]) filled with 100 mM KCl, 11 mM EGTA, 1 mM CaCl2, 1 mM MgCl2, 10 mM HEPES, 5 mM ATP, pH 7.2. The currents were registered using EPC-9 (HEKA, Germany) and recorded with Pulse software package which was also purchased from HEKA. The analysis of observations was carried out using Pulsefit (HEKA, Germany) and the statistical significance was analyzed using a Student's T-test criteria. Data are presented as mean±SEM in % of control values.
Compounds of the invention were tested in 3-5 neurons. Every concentration of compound was repeated three-four times in every neuron. Data are presented as mean±SEM in % of Control values (Table 13+14, FIGS. 8-12). Control value=100%.
(The patch-clamp technique gives a direct electrical read-out from membranes.)

Data set [3] concerns rat brain mitochondria. In words: Mitochondrial membrane potential (safranine test). The format is biochemical, Wistar rats. To be noted: suggested from membrane potential and calcium retention data (Table 15). The method, then: The same experimental conditions were used for the assessment of alterations of the mitochondrial membrane potential, except that safranine was included in incubation medium at a final concentration of 10 mkM and succinate was added before the compounds of the invention. This concentration of safranine was determined before hand as the optimal compromise between signal/baseline ratio and interference of safranine itself with swelling induced by Ca/Pi (safranine tended to enhance Ca/Pi-induced swelling at concentrations above 20 mkM). Changes in the status of the mPT pore were assessed spectrophotometrically at 554 and 524 nm in a cuvette in a Beckman DU 640 spectrophotometer. A554-524 represents the characteristics of mitochondrial potential and A554-characteristics of mitochondrial swelling.

Data set [4] concerns synaptosomes of cortex of rat brain. In words: Glutamate-induced 45Ca2+ uptake into synaptosomes. To be noted: for % Ca of control (control-100%), glutamate-induced 45Ca2+ uptake into synaptosomes: rat cortex synaptosomes. The format is biochemical, Wistar rats. An outline of the steps: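 Cortical synaptosomes (P2 fraction) from 9-10-day-old Wistar rats, ~1.5-2 mg/ml protein in HEPES-buffered saline with glucose, pH 7.4, stimulated 5 min with 200 μM glutamate at 37° C. 45Ca2+ uptake measured by filtration and scintillation counting; specific uptake with compound expressed as percentage of glutamate-induced uptake, each corrected for unstimulated uptake.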

T1 sequence (P14416 whole entry): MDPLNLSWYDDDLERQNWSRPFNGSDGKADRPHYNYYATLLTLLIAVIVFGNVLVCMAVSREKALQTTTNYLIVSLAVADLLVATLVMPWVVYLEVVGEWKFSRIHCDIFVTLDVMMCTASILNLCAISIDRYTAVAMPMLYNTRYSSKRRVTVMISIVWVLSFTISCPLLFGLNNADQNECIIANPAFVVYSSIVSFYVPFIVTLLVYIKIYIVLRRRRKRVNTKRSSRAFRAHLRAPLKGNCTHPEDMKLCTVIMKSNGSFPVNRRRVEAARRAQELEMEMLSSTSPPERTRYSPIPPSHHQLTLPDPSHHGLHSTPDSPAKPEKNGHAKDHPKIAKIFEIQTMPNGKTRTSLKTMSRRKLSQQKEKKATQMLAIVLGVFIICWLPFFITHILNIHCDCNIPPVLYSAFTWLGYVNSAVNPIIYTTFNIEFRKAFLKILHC

As a reminder, the inhibition is the relative decrease from the control value, in per cent. Regarding `CN1CCc2c(c3cc(Cl)ccc3n2CCc2ccccc2)C1` [Compound 36, 8-chloro-2,3,4,5-tetrahydro-2-methyl-5-phenethyl-1H-pyrido[4,3-b]indole], in data set [1] (0.03 uM), the “Antagonist Activity As Measured by % Inhibition D2L” value amounted to 43% and the inhibition at 0.03 µM was found to be 48%. Further, in data set [1] (0.1 uM), the “Antagonist Activity As Measured by % Inhibition D2L” value is 57% and the inhibition at 0.1 µM came to 73%. In data set [1] (0.3 uM), the “Antagonist Activity As Measured by % Inhibition D2L” value amounted to 88% and the inhibition at 0.3 µM was determined as 83%. In data set [1], the inhibition at 1 µM worked out at 85% and the inhibition at 3 µM came out at 104%.
Regarding `COc1ccc(CCn2c3c(c4cc(C)ccc42)CN(C)CC3)cc1` [Compound 247], in data set [1] (0.03 uM), the “Antagonist Activity As Measured by % Inhibition D2L” value is reported as 52% and the inhibition at 0.03 µM came to 48%. In addition, in data set [1] (0.1 uM), the inhibition at 0.1 µM came to 66%. Moreover, in data set [1] (0.3 uM), the “Antagonist Activity As Measured by % Inhibition D2L” value is listed as 83% and the inhibition at 0.3 µM is 81%. Besides, in data set [1], the inhibition at 1 µM was 89% and the inhibition at 3 µM came out at 91%.
Regarding `Cc1ccc2c(c1)c1c(n2CCc2nc(-c3ccccc3)cs2)CCN(C)C1` [Compound C1-5], the “kainic acid-induced currents in Purkinje cells, % of Control values” in data set [2] (compound 10^−5 M) was found to be 126 ± 18%; in data set [2] (compound 10^−6 M), 64 ± 23%; in data set [2] (compound 10^−7 M), 70 ± 23%; in data set [2] (compound 10^−8 M), 62 ± 12%; in data set [2] (compound 10^−9 M), 64 ± 8%. In data set [3], the “impairment of mitochondrial respiratory functions accompanying inhibition of MPT” value is given as “impairment of mitochondrial respiratory functions”. Also, in data set [4] (0.5 μM), the “inhibition of glutamate-induced 45Ca2+ uptake into synaptosomes” value is “about 22.5%”. Also, the “glutamate-induced 45Ca2+ uptake into synaptosomes of rat cortex, % Ca of control (control-100%)” value in data set [4] (C 100 μM) was determined as 130%. Moreover, the “% Ca of control (control-100%), glutamate-induced 45Ca2+ uptake into synaptosomes” value is listed as 96.3 ± 5.6% in data set [4] (compound 0.1 μM); 77.5 ± 0.8% in data set [4] (compound 0.5 μM); 94 ± 3.4% in data set [4] (compound 1 μM); 96 ± 1.5% in data set [4] (compound 5 μM); 117.2 ± 1.3% in data set [4] (compound 10 μM); 115.4 ± 4.8% in data set [4] (compound 50 μM). In addition, the “% Ca of control (control-100%), glutamate-induced 45Ca2+ uptake into synaptosomes” value in data set [4] (compound 100 μM) came to 30.1 ± 7.4%.
As to `COc1ccc2c(c1)c1c(n2CCc2nc(-c3ccccc3)cs2)CCN(C)C1` [Compound C1-6], the “kainic acid-induced currents in Purkinje cells, % of Control values” in data set [2] (compound 3 × 10^−5 M) is given as 130 ± 6%; in data set [2] (compound 10^−5 M) it was 135 ± 1%; in data set [2] (compound 10^−6 M), 146 ± 12%; in data set [2] (compound 10^−7 M) it was 116 ± 7%; in data set [2] (compound 10^−8 M) it was 101 ± 4%; in data set [2] (compound 10^−9 M), 100 ± 3%.
For the molecule `CN1CCc2c(c3cc(F)ccc3n2CCc2nc(-c3ccccc3)cs2)C1` [Compound C1-7], in data set [4], the “concentration at which glutamate-induced 45Ca2+ uptake into synaptosomes was increased” value lay within 5 to 100 µM. Besides, the “inhibition of glutamate-induced 45Ca2+ uptake into synaptosomes” value in data set [4] (0.1-0.5 μM) is approximately 27.3%. Also, the “glutamate-induced 45Ca2+ uptake into synaptosomes of rat cortex, % Ca of control (control-100%)” value in data set [4] (C 100 μM) is given as 139.8%. Besides, the “% Ca of control (control-100%), glutamate-induced 45Ca2+ uptake into synaptosomes” value is recorded as 77.5 ± 2.4% in data set [4] (compound 0.1 μM); 72.7 ± 0.3% in data set [4] (compound 0.5 μM); 98.6 ± 2.4% in data set [4] (compound 1 μM); 131.8 ± 8.8% in data set [4] (compound 5 μM); 134.5 ± 9.2% in data set [4] (compound 10 μM); 126.7 ± 7.7% in data set [4] (compound 50 μM). In addition, in data set [4] (compound 100 μM), the “% Ca of control (control-100%), glutamate-induced 45Ca2+ uptake into synaptosomes” value was 139.8 ± 6.5%.
For `CN1CCc2c(c3ccccc3n2CCc2noc(-c3ccccc3)n2)C1` [Compound C4-1], the “kainic acid-induced currents in Purkinje cells, % of Control values” in data set [2] (compound 10^−5 M) is recorded as 97 ± 4%; in data set [2] (compound 10^−6 M) it was 110 ± 5%; in data set [2] (compound 10^−7 M) it was 115 ± 3%; in data set [2] (compound 10^−8 M), 147 ± 11%; in data set [2] (compound 10^−9 M) it was 125 ± 6%. Besides, in data set [3], the “impairment of mitochondrial respiratory functions accompanying inhibition of MPT” value is “impairment of mitochondrial respiratory functions”. Moreover, the “inhibition of glutamate-induced 45Ca2+ uptake into synaptosomes” value in data set [4] (0.1-0.5 μM) is on record as “about 20%”. The “glutamate-induced 45Ca2+ uptake into synaptosomes of rat cortex, % Ca of control (control-100%)” value in data set [4] (C 0.1 μM) was 79.4 ± 6.1%; in data set [4] (C 0.5 μM) it was 79.2 ± 10%; in data set [4] (C 1.0 μM), 106.1 ± 7.9%; in data set [4] (C 5.0 μM), 128% and 128 ± 4.5%; in data set [4] (C 10 μM) it was 107.6 ± 3.5%; in data set [4] (C 25 μM) it was 114.3 ± 0.5%. The results for the “glutamate-induced 45Ca2+ uptake into synaptosomes of rat cortex, % Ca of control (control-100%)” value in data set [4] (C 50 μM) and in data set [4] (C 100 μM) were 110.1 ± 5.1% and 115.9 ± 8.8%, respectively.
